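Where inhibition never reached the appropriate level, the endpoint shown equals the highest concentration tested. Otherwise, values were interpolated linearly from a five-concentration, 48-hour dose response in 96-well plates. GI50 = concentration required for 50% inhibition of growth.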 Activity calls are given as the source filed them. Cut-off read from the data, not from the text of the source: active = GI50 up to about 1.1 µM and inactive = higher.
Legend:
Assay in all cases: NCI anticancer screen, dose series, 48 h
[1] = tested on: 786-0
[2] = tested on: A498
[3] = tested on: A549
[4] = tested on: ACHN
[5] = tested on: BT-549
[6] = tested on: CAKI-1
[7] = tested on: CCRF-CEM
[8] = tested on: COLO 205
[9] = tested on: DU-145
[10] = tested on: EKVX
[11] = tested on: HCT-116
[12] = tested on: HCT-15
[13] = tested on: HL-60
[14] = tested on: HOP-62
[15] = tested on: HOP-92
[16] = tested on: HT-29
[17] = tested on: Hs-578T
[18] = tested on: IGROV-1
[19] = tested on: K562
[20] = tested on: KM12
[21] = tested on: LOX IMVI
[22] = tested on: M14
[23] = tested on: MCF7
[24] = tested on: MDA-MB-231
[25] = tested on: MDA-MB-435
[26] = tested on: MDA-N
[27] = tested on: MOLT-4
[28] = tested on: Malme-3M
[29] = tested on: NCI-H226
[30] = tested on: NCI-H23
[31] = tested on: NCI-H460
[32] = tested on: NCI-H522
[33] = tested on: NCI/ADR-RES
[34] = tested on: OVCAR-3
[35] = tested on: OVCAR-4
[36] = tested on: OVCAR-5
[37] = tested on: OVCAR-8
[38] = tested on: PC-3
[39] = tested on: RPMI-8226
[40] = tested on: RXF 393
[41] = tested on: SF-268
[42] = tested on: SF-295
[43] = tested on: SF-539
[44] = tested on: SK-MEL-28
[45] = tested on: SK-MEL-2
[46] = tested on: SK-MEL-5
[47] = tested on: SK-OV-3
[48] = tested on: SN12C
[49] = tested on: SNB-19
[50] = tested on: SNB-75
[51] = tested on: SR
[52] = tested on: SW-620
[53] = tested on: T47D
[54] = tested on: TK-10
[55] = tested on: U-251
[56] = tested on: UACC-257
[57] = tested on: UACC-62
[58] = tested on: UO-31
[59] = tested on: HCC 2998

OC1(c2ccc3ccccc3c2)c2c(c3ccccc3c3ccccc23)C2=NCCN21 (stereo unspecified)
GI50 [1]: 7.5 µM (inactive)
GI50 [2]: 12.1 µM (inactive)
GI50 [3]: 7.1 µM (inactive)
GI50 [4]: 8.22 µM (inactive)
GI50 [5]: 14.7 µM (inactive)
GI50 [6]: 11.7 µM (inactive)
GI50 [7]: 4.25 µM (inactive)
GI50 [8]: 1.85 µM (inactive)
GI50 [9]: 16.9 µM (inactive)
GI50 [10]: 5.51 µM (inactive)
GI50 [11]: 2.88 µM (inactive)
GI50 [12]: 4.63 µM
GI50 [13]: 6.46 µM (inactive)
GI50 [14]: 9.33 µM (inactive)
GI50 [15]: 7.18 µM (inactive)
GI50 [16]: 2.8 µM (inactive)
GI50 [17]: 6.14 µM (inactive)
GI50 [18]: 3.85 µM (inactive)
GI50 [19]: 3.81 µM (inactive)
GI50 [20]: 2.32 µM (inactive)
GI50 [21]: 2.28 µM (inactive)
GI50 [22]: 2.12 µM (inactive)
GI50 [23]: 3.48 µM (inactive)
GI50 [24]: 10.1 µM (inactive)
GI50 [25]: 2.17 µM (inactive)
GI50 [26]: 1.96 µM (inactive)
GI50 [27]: 4.81 µM (inactive)
GI50 [28]: 10.4 µM (inactive)
GI50 [29]: 34.5 µM (inactive)
GI50 [30]: 12.1 µM (inactive)
GI50 [31]: 4.3 µM (inactive)
GI50 [32]: 3.85 µM (inactive)
GI50 [33]: 2.13 µM (inactive)
GI50 [34]: 7.21 µM (inactive)
GI50 [35]: 3.55 µM (inactive)
GI50 [36]: 7.78 µM (inactive)
GI50 [37]: 4.44 µM (inactive)
GI50 [38]: 4.54 µM (inactive)
GI50 [39]: 2.52 µM (inactive)
GI50 [40]: 2.47 µM (inactive)
GI50 [41]: 5.79 µM (inactive)
GI50 [42]: 3.09 µM (inactive)
GI50 [43]: 5.45 µM (inactive)
GI50 [44]: 2.12 µM (inactive)
GI50 [45]: 7.16 µM (inactive)
GI50 [46]: 17 µM (inactive)
GI50 [47]: 6.68 µM (inactive)
GI50 [48]: 9.2 µM (inactive)
GI50 [49]: 12.9 µM (inactive)
GI50 [50]: 3.11 µM (inactive)
GI50 [51]: 3.08 µM (inactive)
GI50 [52]: 3.34 µM (inactive)
GI50 [53]: 4.45 µM (inactive)
GI50 [54]: 7.98 µM (inactive)
GI50 [55]: 5.75 µM (inactive)
GI50 [56]: 18.5 µM (inactive)
GI50 [57]: 13.5 µM (inactive)
GI50 [58]: 6.92 µM (inactive)

CC#CC(=O)SCCNC(=O)CC
GI50 [1]: > 6.7 µM (inactive)
GI50 [2]: > 10 µM (inactive)
GI50 [3]: > 10 µM (inactive)
GI50 [4]: > 10 µM (inactive)
GI50 [5]: 3.81 µM (inactive)
GI50 [6]: > 10 µM (inactive)
GI50 [7]: 3.05 µM (inactive)
GI50 [8]: 3.27 µM (inactive)
GI50 [9]: > 10 µM (inactive)
GI50 [10]: > 10 µM (inactive)
GI50 [59]: > 10 µM (inactive)
GI50 [11]: 8.51 µM (inactive)
GI50 [12]: > 10 µM
GI50 [13]: > 5.57 µM (inactive)
GI50 [14]: > 10 µM (inactive)
GI50 [16]: > 10 µM (inactive)
GI50 [17]: > 10 µM (inactive)
GI50 [18]: > 10 µM (inactive)
GI50 [19]: > 5.38 µM (inactive)
GI50 [20]: > 10 µM (inactive)
GI50 [21]: 3.31 µM (inactive)
GI50 [22]: > 8.05 µM (inactive)
GI50 [23]: 4.41 µM (inactive)
GI50 [24]: > 10 µM (inactive)
GI50 [25]: 7.24 µM (inactive)
GI50 [26]: 6.07 µM (inactive)
GI50 [27]: 1.48 µM (inactive)
GI50 [28]: > 10 µM (inactive)
GI50 [29]: > 10 µM (inactive)
GI50 [30]: > 10 µM (inactive)
GI50 [31]: > 10 µM (inactive)
GI50 [32]: 1.62 µM (inactive)
GI50 [33]: > 10 µM (inactive)
GI50 [34]: > 10 µM (inactive)
GI50 [35]: 4.48 µM (inactive)
GI50 [36]: > 10 µM (inactive)
GI50 [37]: > 10 µM (inactive)
GI50 [38]: > 10 µM (inactive)
GI50 [39]: > 5.15 µM (inactive)
GI50 [40]: 4.53 µM (inactive)
GI50 [41]: > 10 µM (inactive)
GI50 [42]: > 10 µM (inactive)
GI50 [43]: 9.02 µM (inactive)
GI50 [44]: > 8.71 µM (inactive)
GI50 [45]: > 10 µM (inactive)
GI50 [46]: 8.39 µM (inactive)
GI50 [47]: > 10 µM (inactive)
GI50 [48]: > 10 µM (inactive)
GI50 [49]: > 10 µM (inactive)
GI50 [50]: > 10 µM (inactive)
GI50 [51]: > 4.79 µM (inactive)
GI50 [52]: 3.01 µM (inactive)
GI50 [53]: > 6.5 µM (inactive)
GI50 [54]: > 10 µM (inactive)
GI50 [55]: > 10 µM (inactive)
GI50 [56]: > 10 µM (inactive)
GI50 [57]: > 9.44 µM (inactive)
GI50 [58]: > 10 µM (inactive)
